For data set [1] the following is noted: rat, plasma.
Procedure: (§2) Plasma was spiked resulting in concentrations of 40 μg/ml and stored at 37° C. At time points 0, 15, 30, 45, 60, 120, 180, 240 and 300 min samples of 20 μl were taken. The plasma was immediately mixed for precipitation with the two-fold volume of acetonitrile containing 0.15% (w/v) n-nonyl-β-D-glucopyranoside. Following centrifugation the supernatants were mixed with the two-fold volume of 0.1% (v/v) trifluroacetic acid. Twenty μl of these solutions were analyzed by LC-MS. Chromatography was performed using a gradient with the following eluents: eluent A: water containing 0.06% trifluroacetic acid (v/v), eluent B: acetonitrile/water 80:20 (v/v; with 0.05% trifluoroacetic acid; v/v). A C18 precolumn was used in combination with a C18 separation column (300 Å, 5 μm, 150×1 mm inner diameter) at a flow rate of 30 μl/min. HPLC eluates were ionized by the electrospray technique of a LCQ classic mass spectrometer. Areas of the detected peaks of the peptides of the present invention were measured and used for quantification by external calibration. The calibration curve was linear over a range from 0.5 μg/ml to 250 μg/ml plasma. Half life—defined as the period for a concentration decrease to 50% of the initial concentration—was calculated from the slope of an extrapolated curve plotting the relative peptide concentration at a given time point (logarithm scale) against the incubation time. These experiments allowed the quantitative analysis of peptide concentration in plasma.
The conditions of data set [2]: cynomolgus monkey, plasma.
Procedure: as §2
Data set [3] relates to HIV-1 NL4-3 DTV. Particulars: read-out: IC50 DTV, P4-CCR5 cells, peptide 2 h before infection, readout three days after infection. In short, it runs like this: (§1)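 P4-CCR5 cells (CD4, CCR5, CXCR4, HIV-1 promoter-driven β-galactosidase) pretreated 2 h with peptide, then infected with virus containing 1 ng p24 antigen and incubated overnight. Cells washed and cultured without peptide; three days post-infection infectivity read by chemiluminescent β-galactosidase assay, in quintuplicate.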

Data set [4] deals with X4-tropic HIV-1 NL4-3. Particulars: read-out: IC50 NL4-3; P4-CCR5 cells, HIV-1 NL4-3, peptide 2 h before infection, readout three days after infection. In short, it runs like this: as §1
The conditions of data set [5]: dog, plasma.
Procedure: as §2
For data set [6] the following is noted: human, plasma.
Procedure: as §2

Like-named read-outs stand apart in the source and are kept apart here. Positions of bridges follow the written chain, without caps; N, C: chain ends. Non-standard residues stand in square brackets, D forms with d. Residues, ends and D or L forms follow the SMILES beside them. Chains are numbered I, II in the order given. Dip = N[C@H](C(=O)O)C(c1ccccc1)c1ccccc1; dTic = O=C(O)[C@H]1Cc2ccccc2CN1

From patent US7655629B2, “Peptides and their use for the treatment of HIV infections” (priority 2002, dated 2010) come the findings set out here.

For `CC[C@H](C)[C@H](NC(=O)[C@H](C)NC(=O)[C@H](CCC(=O)O)NC(=O)[C@@H](N)CC(C)C)C(=O)N1CCC[C@H]1C(=O)N[C@H]1CSSC[C@@H](C(=O)N[C@H](C(=O)N[C@@H](C)C(=O)N2Cc3ccccc3C[C@@H]2C(=O)N[C@@H](CC(N)=O)C(=O)N[C@@H](CCCCN)C(=O)N2CCC[C@H]2C(=O)N2Cc3ccccc3C[C@@H]2C(=O)N[C@@H](Cc2ccccc2)C(=O)N[C@H](C(=O)N[C@@H](Cc2ccccc2)C(=O)O)C(C)C)C(C)C)NC(=O)[C@@H]2CCCN2C(=O)[C@@H]2CCCN2C(=O)[C@H]([C@@H](C)CC)NC(=O)[C@H](CO)NC1=O` [VIR-166, LEAIPCSIPPCVA(D-Tic)NKP(D-Tic)FVF] (H-LEAIPCSIPPCVA[dTic]NKP[dTic]FVF-OH; disulfide 6-11), the half-life (as a rule, the time in which the quantity being followed falls by half) is 0.4 h in data set [1], 12.1 h in data set [2], 11 h in data set [5] and 7.6 h in data set [6]. In addition, the IC50 (as a rule, the concentration that inhibits the measured activity by half) in data set [3] was determined as 506 nM; in data set [4] it was 356 nM.

Consider `CC[C@H](C)[C@H](NC(=O)[C@H](C)NC(=O)[C@H](CCC(=O)O)NC(=O)[C@@H](N)CC(C)C)C(=O)N1CCC[C@H]1C(=O)N[C@@H](CCSC)C(=O)N[C@@H](CO)C(=O)N[C@H](C(=O)N1CCC[C@H]1C(=O)N1CCC[C@@H]1C(=O)N[C@@H](CCC(=O)O)C(=O)N[C@H](C(=O)N[C@@H](C)C(=O)N[C@@H](Cc1ccccc1)C(=O)N[C@@H](CC(N)=O)C(=O)N[C@@H](CCCCN)C(=O)N1CCC[C@H]1C(=O)N[C@@H](Cc1ccccc1)C(=O)N[C@H](C(=O)N[C@@H](Cc1ccccc1)C(=O)O)C(C)C)C(c1ccccc1)c1ccccc1)[C@@H](C)CC` [VIR-261, LEAIPMSIPpE(3,3-diphenylalanine)AFNKPFVF] (H-LEAIPMSIP[dP]E[Dip]AFNKPFVF-OH), for which the half-life in data set [1] is 0.2 h; in data set [2] it was 6.5 h; in data set [5] it was 15.1 h; in data set [6], 7 h. The IC50 in data set [3] turned out to be 1030 nM; in data set [4], 538 nM.

Consider `CC[C@H](C)[C@H](NC(=O)[C@H](C)NC(=O)[C@H](CCC(=O)O)NC(=O)[C@@H](N)CC(C)C)C(=O)N1CCC[C@H]1C(=O)N[C@@H](CCSC)C(=O)N[C@H]1CSSC[C@@H](C(=O)N[C@@H](Cc2ccccc2)C(=O)N[C@@H](Cc2ccccc2)C(=O)N[C@@H](CC(N)=O)C(=O)N[C@@H](CCCCN)C(=O)N2CCC[C@H]2C(=O)N[C@@H](Cc2ccccc2)C(=O)N[C@H](C(=O)N[C@@H](Cc2ccccc2)C(=O)O)C(C)C)NC(=O)[C@H](CCC(=O)O)NC(=O)[C@@H]2CCCN2C(=O)[C@@H]2CCCN2C(=O)[C@H]([C@@H](C)CC)NC1=O` [VIR-273] (H-LEAIPMCIPPECFFNKPFVF-OH; disulfide 7-12), for which the half-life was 0.1 h in data set [1], 3.6 h in data set [2], 12.4 h in data set [5] and 4.2 h in data set [6]. For the same molecule, the figures for the IC50 in data set [3] and in data set [4] were 1100 nM and 332 nM, respectively.

On to `CC[C@H](C)[C@H](NC(=O)[C@H](C)NC(=O)[C@H](CCC(=O)O)NC(=O)[C@@H](N)CC(C)C)C(=O)N1CCC[C@H]1C(=O)N[C@@H](CCSC)C(=O)N[C@H]1CSSC[C@@H](C(=O)N[C@@H](CC(C)C)C(=O)N[C@@H](Cc2ccccc2)C(=O)NCC(=O)N[C@@H](CCCCN)C(=O)N2CCC[C@H]2C(=O)N[C@@H](Cc2ccccc2)C(=O)N[C@H](C(=O)N[C@@H](Cc2ccccc2)C(=O)O)C(C)C)NC(=O)[C@H](CCC(=O)O)NC(=O)[C@@H]2CCCN2C(=O)[C@@H]2CCCN2C(=O)[C@H]([C@@H](C)CC)NC1=O` [VIR-274] (H-LEAIPMCIPPECLFGKPFVF-OH; disulfide 7-12), for which the half-life is 0.1 h in data set [1], 2.8 h in data set [2], 9.5 h in data set [5] and 2 h in data set [6]. Also, the IC50 turned out to be 1420 nM in data set [3] and 576 nM in data set [4].

As to `CC[C@H](C)[C@H](NC(=O)[C@H](C)NC(=O)[C@H](CCC(=O)O)NC(=O)[C@@H](N)CC(C)C)C(=O)N1CCC[C@H]1C(=O)N[C@H]1CSSC[C@@H](C(=O)N[C@H](C(=O)N[C@@H](Cc2ccccc2)C(=O)N[C@@H](Cc2ccccc2)C(=O)NCC(=O)N[C@@H](CCCCN)C(=O)N2CCC[C@H]2C(=O)N[C@@H](Cc2ccccc2)C(=O)N[C@H](C(=O)N[C@@H](Cc2ccccc2)C(=O)O)C(C)C)C(C)C)NC(=O)[C@@H]2CCCN2C(=O)[C@@H]2CCCN2C(=O)[C@H]([C@@H](C)CC)NC(=O)[C@H](CO)NC1=O` [VIR-344] (H-LEAIPCSIPPCVFFGKPFVF-OH; disulfide 6-11), the half-life was 0.1 h in data set [1], 10.5 h in data set [2], 6.6 h in data set [5] and 7 h in data set [6]. For the same molecule, the IC50 in data set [3] is 448 nM; in data set [4] it was 348 nM.

For `CC[C@H](C)[C@H](NC(=O)[C@H](C)NC(=O)[C@H](CCC(=O)O)NC(=O)[C@@H](N)CC(C)C)C(=O)N1CCC[C@H]1C(=O)N[C@H]1CSSC[C@@H](C(=O)N[C@@H](Cc2ccccc2)C(=O)N[C@@H](CC(C)C)C(=O)N[C@@H](Cc2ccccc2)C(=O)NCC(=O)N[C@@H](CCCCN)C(=O)N2CCC[C@H]2C(=O)N[C@@H](Cc2ccccc2)C(=O)N[C@H](C(=O)N[C@@H](Cc2ccccc2)C(=O)O)C(C)C)NC(=O)[C@@H]2CCCN2C(=O)[C@@H]2CCCN2C(=O)[C@H]([C@@H](C)CC)NC(=O)[C@H](CO)NC1=O` [VIR-345] (H-LEAIPCSIPPCFLFGKPFVF-OH; disulfide 6-11), the half-life is 0.1 h in data set [1], 5.1 h in data set [2], 10.7 h in data set [5] and 5.6 h in data set [6]. In addition, the IC50 in data set [3] is 376 nM; in data set [4], 298 nM.

Consider `CC[C@H](C)[C@H](NC(=O)[C@H](C)NC(=O)[C@H](CCC(=O)O)NC(=O)[C@@H](N)CC(C)C)C(=O)N1CCC[C@H]1C(=O)N[C@H]1CSSC[C@@H](C(=O)N[C@H](C(=O)NCC(=O)N[C@@H](Cc2ccccc2)C(=O)NCC(=O)N[C@@H](CCCCN)C(=O)N2CCC[C@H]2C(=O)N[C@@H](Cc2ccccc2)C(=O)N[C@H](C(=O)N[C@@H](Cc2ccccc2)C(=O)O)C(C)C)C(C)C)NC(=O)[C@H]2CCCN2C(=O)[C@@H]2CCCN2C(=O)[C@H]([C@@H](C)CC)NC(=O)[C@H](CO)NC1=O` [VIR-348, LEAIPCSIPpCVGFGKPFVF] (H-LEAIPCSIP[dP]CVGFGKPFVF-OH; disulfide 6-11), for which the half-life in data set [1] is 0.2 h; in data set [2] it was 3 h; in data set [5] it was 9.3 h; in data set [6], 3.3 h. Besides, the figures for the IC50 in data set [3] and in data set [4] were 541 nM and 326 nM, respectively.

With `CC[C@H](C)[C@H](NC(=O)[C@H](C)NC(=O)[C@H](CCC(=O)O)NC(=O)[C@@H](N)CC(C)C)C(=O)N1CCC[C@H]1C(=O)N[C@H]1CSSC[C@@H](C(=O)N[C@H](C(=O)N[C@@H](Cc2ccccc2)C(=O)N[C@@H](Cc2ccccc2)C(=O)N[C@@H](CC(N)=O)C(=O)N[C@@H](CCCCN)C(=O)N2CCC[C@H]2C(=O)N[C@@H](Cc2ccccc2)C(=O)N[C@H](C(=O)N[C@@H](Cc2ccccc2)C(=O)O)C(C)C)C(C)C)NC(=O)[C@H]2CCCN2C(=O)[C@@H]2CCCN2C(=O)[C@H]([C@@H](C)CC)NC(=O)[C@H](CO)NC1=O` [VIR-352, LEAIPCSIPpCVFFNKPFVF] (H-LEAIPCSIP[dP]CVFFNKPFVF-OH; disulfide 6-11), the half-life in data set [1] is 0.2 h; in data set [2] it was 6.4 h; in data set [5], 23.7 h; in data set [6], 3.6 h. Besides, the IC50 in data set [3] is 624 nM; in data set [4], 340 nM.

With `CC[C@H](C)[C@H](NC(=O)[C@H](C)NC(=O)[C@H](CCC(=O)O)NC(=O)[C@@H](N)CC(C)C)C(=O)N1CCC[C@H]1C(=O)N[C@@H](CSSC[C@H](NC(=O)[C@@H]1CCCN1C(=O)[C@@H](NC(=O)[C@H](C)NC(=O)[C@H](CCC(=O)O)NC(=O)[C@@H](N)CC(C)C)[C@@H](C)CC)C(=O)N[C@@H](CO)C(=O)N[C@H](C(=O)N1CCC[C@H]1C(=O)N1CCC[C@H]1C(=O)N[C@@H](CCC(=O)O)C(=O)N[C@@H](Cc1ccccc1)C(=O)N[C@@H](CC(C)C)C(=O)N[C@@H](Cc1ccccc1)C(=O)NCC(=O)N[C@@H](CCCCN)C(=O)N1CCC[C@H]1C(=O)N[C@@H](Cc1ccccc1)C(=O)N[C@H](C(=O)N[C@@H](Cc1ccccc1)C(=O)O)C(C)C)[C@@H](C)CC)C(=O)N[C@@H](CO)C(=O)N[C@H](C(=O)N1CCC[C@H]1C(=O)N1CCC[C@H]1C(=O)N[C@@H](CCC(=O)O)C(=O)N[C@@H](Cc1ccccc1)C(=O)N[C@@H](CC(C)C)C(=O)N[C@@H](Cc1ccccc1)C(=O)NCC(=O)N[C@@H](CCCCN)C(=O)N1CCC[C@H]1C(=O)N[C@@H](Cc1ccccc1)C(=O)N[C@H](C(=O)N[C@@H](Cc1ccccc1)C(=O)O)C(C)C)[C@@H](C)CC` [VIR-576] (I: H-LEAIPCSIPPEFLFGKPFVF-OH / II: H-LEAIPCSIPPEFLFGKPFVF-OH; disulfide I:6-II:6), the half-life was 2.6 h in data set [1], 3.8 h in data set [2], 12.6 h in data set [5] and 5.8 h in data set [6].

H-LEAIPMSIPPEVFFGKPFVF-OH [VIR-170]: the IC50 in data set [3] turned out to be 2000 nM; in data set [4] it was 1520 nM.
